The test deals with mRNA for lanosterol synthetase in the mouse preputial gland. To be noted: gonadectomized male mice, short-term treatment, Affymetrix, effect visible at 18, 24 and 96 hours.

Structures are written as SMILES.

Method: The expression of the genes was analyzed on an Affymetrix station (microfluidic model; hybridization oven; scanner; computer) following the protocols provided by the company. Briefly, the total RNA isolated from the tissues is transcribed to cDNA. From the double-stranded cDNA, a cRNA labeled with biotin is synthesized using T7 polymerase and a precursor NTP conjugated to biotin. The cRNAs are then fragmented to small sized fragments. All the molecular biology steps are checked using the Agilent “Lab on a chip” system in order to confirm the good efficiencies of the enzymatic reactions. The Affymetrix chip is hybridized with the biotinylated cRNA, rinsed and then fluorescence labeled using a fluorophore conjugated to streptavidin. After washings, the chip is scanned and the results are calculated using the MAS5 software provided by Affymetrix. An expression value is obtained for each gene as well as the indication of the significance of the value obtained. […]
The gene expression was analyzed using the Affymetrix technology described above (FIG. 1A) and the results were then confirmed by the real-time PCR technique (FIG. 1B).
B. Male mice were gonadectomized and were then treated with the vehicle or DHT. […] The RNA was isolated and the expression of the genes was analyzed by the Affymetrix technique. […]

`C[C@]12CCC(=O)C[C@@H]1CC[C@@H]1[C@@H]2CC[C@]2(C)[C@@H](O)CC[C@@H]12` [DHT, Dihydrotestosterone]: the “level of expression of the mRNA for lanosterol synthetase” value is “induced”.

(Values after patent publication US20100021893A1, “Modulators of lanosterol synthetase for treating acne or hyperseborrhea” (GALDERMA RESEARCH & DEVELOPMENT, priority 2006, published 2010).)
